Legend:
Format in all cases: cell-based
retinoic acid receptor α = biological target: T1, retinoic acid receptor α (Homo sapiens, UniProt P10276); assay: RAR activity test, DR5-tk-CAT reporter in HaCAT cells; conditions: 1 μM, CAT ELISA, FIG. 2 (A)
T1 construct: expressed in transfected cells; b135 says HaCAT
T1 sequence (P10276 1-462): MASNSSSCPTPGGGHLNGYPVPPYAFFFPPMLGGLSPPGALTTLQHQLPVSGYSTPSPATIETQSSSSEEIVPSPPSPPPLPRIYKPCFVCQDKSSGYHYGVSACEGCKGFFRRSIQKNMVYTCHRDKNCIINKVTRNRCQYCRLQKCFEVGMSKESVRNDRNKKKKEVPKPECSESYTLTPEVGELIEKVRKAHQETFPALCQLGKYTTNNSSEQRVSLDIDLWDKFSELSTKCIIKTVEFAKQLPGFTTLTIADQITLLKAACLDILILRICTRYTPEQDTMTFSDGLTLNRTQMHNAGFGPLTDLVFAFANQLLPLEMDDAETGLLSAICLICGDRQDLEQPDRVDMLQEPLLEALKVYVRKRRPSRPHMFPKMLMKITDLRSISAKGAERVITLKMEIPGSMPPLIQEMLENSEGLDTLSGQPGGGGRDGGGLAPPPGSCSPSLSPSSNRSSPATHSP
Description: (§1) To analyze the effects of retinol-(N-formyl-aspartam) on the activity of retinoic acid receptor, skin cancer (HaCAT) cell lines were utilized to measure the activity of retinoic acid receptor/retinoid X receptor.
(§2) Recombinant DNA, DR5-tk-CAT or DR1-tk-CAT consisting of DR1 or DR5, effectors of retinoic acid receptor/retinoid X receptor, thymine kinase promoter, and CAT(chloramphenicol acetyl transferase) were mixed with the plasmid DNA expressing retinoic acid receptor α, β, ? or retinoid X receptor α, β, ? to cotransfect skin cancer (HaCAT) cell line with lipofectamine (GibcoBRL). The cotransfected cell lines were cultured for 1 day on DMEM/10% FBS media, each retinol derivatives (1 μM) were added and cultured for one more day, 5% CO2, 37° C. The cells were washed with phosphate-buffered saline (PBS), and the proteins were isolated from each cells, and the activity of β-galactosidase and protein contents were measured to determine transfection efficacy, the transcription level of RAR or RXR receptor were measured with CAT ELISA (Roche Molecular Biochemical, Mannheim, Germany).
(§3) To determine the effect of retinol-(N-formyl-aspartam) on retinoic acid receptors, each retinoic acid receptor (α, β, or ? ) expression vector and activity measuring DR5-tk-CAT plasmid were introduced with liposome. After treating cells with retinol-(N-formyl-aspartam), the cell extracts were isolated. The expression level of CAT were measured with CAT ELISA to determine the effect of retinol-(N-formyl-aspartam) on the activity of retinoic acid receptors.

retinoic acid receptor β = biological target: T2, retinoic acid receptor β (Homo sapiens, UniProt P10826); assay: as above; conditions: 1 μM, CAT ELISA, FIG. 2 (A)
T2 construct: expressed in transfected cells; b135 says HaCAT
T2 sequence (P10826 1-455): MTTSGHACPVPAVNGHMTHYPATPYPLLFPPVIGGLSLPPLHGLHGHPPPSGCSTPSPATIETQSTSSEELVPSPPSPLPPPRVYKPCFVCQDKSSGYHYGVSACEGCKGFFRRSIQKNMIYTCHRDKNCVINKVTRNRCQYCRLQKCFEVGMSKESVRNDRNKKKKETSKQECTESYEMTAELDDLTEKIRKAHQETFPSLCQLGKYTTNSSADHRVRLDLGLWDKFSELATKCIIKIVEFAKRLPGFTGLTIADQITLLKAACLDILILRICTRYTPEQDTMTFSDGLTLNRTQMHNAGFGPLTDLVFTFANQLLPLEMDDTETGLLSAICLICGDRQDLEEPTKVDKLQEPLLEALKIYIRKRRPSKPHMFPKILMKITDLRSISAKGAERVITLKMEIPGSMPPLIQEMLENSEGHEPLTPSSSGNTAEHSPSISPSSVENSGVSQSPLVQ
Description: as §1, §2, §3

retinoic acid receptor γ = biological target: T3, retinoic acid receptor γ (Homo sapiens, UniProt P13631); assay: as above; conditions: 1 μM, CAT ELISA, FIG. 2 (A)
T3 construct: expressed in transfected cells; b135 says HaCAT
T3 sequence (P13631 1-454): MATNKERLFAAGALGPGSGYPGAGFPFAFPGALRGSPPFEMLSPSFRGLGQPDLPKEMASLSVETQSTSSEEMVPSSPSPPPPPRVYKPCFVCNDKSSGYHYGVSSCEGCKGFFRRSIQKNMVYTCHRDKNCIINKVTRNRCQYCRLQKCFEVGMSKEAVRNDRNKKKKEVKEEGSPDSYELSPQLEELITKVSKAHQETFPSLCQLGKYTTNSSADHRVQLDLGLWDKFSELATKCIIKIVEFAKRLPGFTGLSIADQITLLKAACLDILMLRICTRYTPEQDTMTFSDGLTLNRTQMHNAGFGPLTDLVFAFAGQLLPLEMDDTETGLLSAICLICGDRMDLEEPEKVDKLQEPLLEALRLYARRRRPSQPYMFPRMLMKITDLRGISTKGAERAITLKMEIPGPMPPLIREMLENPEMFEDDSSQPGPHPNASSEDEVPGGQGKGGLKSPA
Description: as §1, §2, §3

retinoid X receptor γ = biological target: T4, retinoid X receptor γ (Homo sapiens, UniProt P48443); assay: RXR activity test, DR1-tk-CAT reporter in HaCAT cells; conditions: 1 μM, CAT ELISA, FIG. 2 (B)
T4 construct: expressed in transfected cells; host or cells: HaCAT
T4 sequence (P48443 1-463): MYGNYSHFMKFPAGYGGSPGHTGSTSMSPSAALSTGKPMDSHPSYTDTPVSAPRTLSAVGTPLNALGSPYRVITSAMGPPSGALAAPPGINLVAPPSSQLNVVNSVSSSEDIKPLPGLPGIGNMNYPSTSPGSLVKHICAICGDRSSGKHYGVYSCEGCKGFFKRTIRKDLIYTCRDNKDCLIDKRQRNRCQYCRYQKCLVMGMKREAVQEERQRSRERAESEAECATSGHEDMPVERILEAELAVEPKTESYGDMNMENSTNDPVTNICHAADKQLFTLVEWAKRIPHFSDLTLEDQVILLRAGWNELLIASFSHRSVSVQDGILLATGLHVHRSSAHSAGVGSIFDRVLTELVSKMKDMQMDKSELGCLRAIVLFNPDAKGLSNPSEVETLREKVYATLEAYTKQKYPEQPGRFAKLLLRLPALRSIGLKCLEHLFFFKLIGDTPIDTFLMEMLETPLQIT
Description: as §1, §2

SMILES: COC(=O)C(Cc1ccccc1)NC(=O)[C@H](CC(=O)OC/C=C(C)/C=C/C=C(C)/C=C/C1=C(C)CCCC1(C)C)NC=O (stereo partly drawn) [retinol-(N-formyl-aspartam), (2E,4E,6E,8E)-3,7-dimethyl-9-(2,6,6-trimethyl-1-cyclohexenyl)-2,4,6,8-nonatetraenyl(3S)-4-[(1-benzyl-2-methoxy-2-oxoethyl)amino]-3-formylamino-4-oxobutanoate]
- activation of retinoic acid receptor α (retinoic acid receptor α): high activation
- activation of retinoic acid receptor β (retinoic acid receptor β): weak activation
- activation of retinoic acid receptor γ (retinoic acid receptor γ): weak activation
- activation of retinoid X receptor γ (retinoid X receptor γ): no activation
